Measurements: patent US20100184815A1 (priority 2008, published 2010)
Where two headings read alike, the source gives them in different places.

Legend:
Full Length hPPARα = target: T1, Full Length hPPARα (Homo sapiens, UniProt Q07869); assay: Full length hPPARα transfection assay; assay type: cell-based; conditions: full length receptor; read-out: Full Length hPPAR α EC50 (scaled number)
T1 construct: Full Length; expressed in transfected cells; host or cells: Cos cells
T1 sequence (Q07869 1-468): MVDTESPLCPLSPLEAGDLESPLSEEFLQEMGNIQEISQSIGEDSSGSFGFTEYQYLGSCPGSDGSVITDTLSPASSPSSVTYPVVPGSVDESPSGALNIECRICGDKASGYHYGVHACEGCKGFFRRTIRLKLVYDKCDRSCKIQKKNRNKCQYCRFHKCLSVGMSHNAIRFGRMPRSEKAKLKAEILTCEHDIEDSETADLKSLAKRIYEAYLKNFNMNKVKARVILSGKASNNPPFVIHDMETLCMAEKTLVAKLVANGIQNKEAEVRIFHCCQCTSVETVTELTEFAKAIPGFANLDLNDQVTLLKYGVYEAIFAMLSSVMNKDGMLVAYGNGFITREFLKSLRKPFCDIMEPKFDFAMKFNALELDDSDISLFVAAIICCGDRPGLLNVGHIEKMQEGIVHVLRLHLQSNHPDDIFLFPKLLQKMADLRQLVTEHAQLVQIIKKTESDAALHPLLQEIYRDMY
Procedure: Transient transfection assays. Cos cells were seeded in 60-mm dishes at a density of 5.5×10^5 cells/dish in Dulbecco's modified Eagle's medium (DMEM) supplemented with 10% fetal calf serum (FCS) and incubated at 37° C. for 24 hours before transfection. Cells were transfected in Opti-MEM (Gibco; Invitrogen, Carlsbad, Calif.) without FCS for 3 hours at 37° C., using polyethylenimine, with reporter and expression plasmids. The plasmid pBluescript (Stratagene, La Jolla, Calif.) was used as carrier DNA to set the final amount of DNA to 5.5 μg/dish. The pCMV-b-galactosidase expression plasmid was cotransfected as a control for transfection efficiency. Transfection was stopped by the addition of DMEM supplemented with 10% FCS, and cells were then incubated at 37° C. After 16 hours, cells were trypsinized and seeded in 96-well plates at the density of 2×10^4 cells/well and incubated for 6 hours in 10% FCS-containing DMEM. Cells were then incubated for 24 hours in DMEM containing 0.2% FCS and increasing concentrations of the compound tested or vehicle (DMSO). At the end of the experiment, cells were washed once with ice-cold PBS, lysed and the luciferase and b-galactosidase assays were performed in a luminometer and spectrophotomer. Transfection efficiencies were normalized with the b-galactosidase activity assay. Half-maximal effective concentration (EC50) was estimated using Prism software (GraphPad). All transfection experiments were performed at least three times.
In the following tables, proprietary compound EC50 values for hPPAR α, β, δ and γ are shown. The EC50 value is the concentration of a drug that induces a response halfway between the baseline and maximum, and is commonly used as a measure of drug potency. EC50 values are reported on a scale of 1 through 5, wherein the value scale is defined for each receptor as follows: […]

[1] = Metabolism studies using human liver microsomal preparations; assay type: in vitro ADME; conditions: for HLMs t1/2 (min) / half-life: pooled human liver microsomes, with NADPH (CYP system active), 37° C.; for HLMs Predominant Enzyme: comparison of half life with and without NADPH: Esterase, CYP or Mixed; for half-life: pH 7.4, read-out: HLMs t1/2
Procedure: Compounds were incubated in pooled human liver microsomes (HLMs) in the presence or absence of an NADPH-generating system. NADPH is required for the activity of cytochrome P450 (CYP) and other oxidative enzymes present in HLMs, but not for esterase activity. An additional incubation was carried out in the absence of HLM to assess compound stability. The disappearance of parent and the appearance of the corresponding acid metabolite were monitored over the time course of the incubations using LC-MS/MS.
A stock solution (20 mM) of each proprietary compound in DMSO was prepared and store at −20° C. until needed. A working stock solution (0.2 mM) was prepared for each proprietary compound by adding an aliquot of the stock solution (10 μL) to acetonitrile (990 μL).
An aliquot of the HLM solution was removed from the −80° C. freezer and placed on ice. Tris Buffer (50 mM, pH 7.4) containing MgCl2 (hexahydrate, 5 mM) was pre-incubated in a 37° C. water bath. A set of Eppendorf microfuge tubes (1.5 mL) was appropriately labeled. To each tube was added Tris buffer with or without the NADPH generating system. An aliquot of pooled HLMs was added to all the incubations except those that were the buffer control.
Tubes were preincubated for 5 min in a shaking incubator bath (37° C., 900 rpm) and the reaction was initiated by adding an aliquot of the proprietary working solution (5 μL). The additions were timed carefully in order to coordinate the sample collections below. A small aliquot (50 μL) was removed at […] and delivered to the respective tubes containing dextrorphan (100 μL of 0.5 μg/mL solution) in dissolved in methanol or acetonitrile. The samples were centrifuged at 14000 g for 15 minutes at 4° C. The supernatant was transferred to clean labeled HPLC injection vials and stored at −80° C. until analyzed. An aliquot of the supernatant […] was added to water (75 μL), mixed and injected onto the LC-MS/MS system for analysis.
“HLM t1/2” represents the observed half life of the compound under conditions that included NADPH, i.e., the CYP system was active. Comparison to the half life of the test article under (−)NADPH conditions, the enzyme predominant ly responsible for the metabolism of the test article. […] Where roughly equal metabolism is seen by each enzyme system, “mixed” is noted in the “Predominant enzyme” column.

pig liver esterase = assay: Metabolism studies using pig liver esterase; assay type: in vitro ADME; conditions: 37° C.
Procedure: The esterase-mediated metabolism of these compounds was studied using commercially available pig liver esterase in the presence and absence of human plasma proteins. The disappearance of parent was monitored over the time course of the incubations using a LC-UV detection system.
A stock solution and working stock solution was prepared for each proprietary compound as described for the human liver microsomal incubations. Working solutions of pig liver esterase in potassium phosphate buffer ([…], pH 7.4) and pig liver esterase in human plasma protein were prepared by dissolving pig liver esterase (2.51 mg) in the phosphate buffer or plasma protein solutions, respectively.
A set of three Eppendorf microfuge tubes (1.5 mL) was appropriately labeled. To each tube was added 1.5 mL of phosphate buffer, pig liver esterase in buffer, or pig liver esterase in human plasma protein solution. These solutions were pre-incubated (37° C., 900 rpm) and the reactions were initiated by adding an aliquot (37.5 μL) of the working solution of proprietary compound to each tube. An aliquot (100 μL) from each tube was removed at time 0, 5, 30, 60, and 120 min and added to a tube containing acetonitrile (200 μL) to stop the reaction.
The samples were centrifuged at 14000 g for 15 minutes at 4° C. The supernatant was transferred to clean labeled HPLC injection vials and stored at −80° C. until analyzed. An aliquot of the supernatant (25 μL) was injected onto the LC-UV system for analysis.
Half lives of a sample of test articles is noted in the following table. Half life was determined in the presence or absence of plasma.

[2] = pig liver esterase in human plasma protein solution, read-out: Pig Liver Esterase (t1/2 min.) (+) Plasma
[3] = pig liver esterase in phosphate buffer pH 7.4, no plasma, read-out: Pig Liver Esterase (t1/2 min.) (−) Plasma
[4] = pig liver esterase in human plasma protein solution

| EC50 (Full Length hPPARα) | HLMs t1/2 (min) [1] | half-life at 4.9 µM (pig liver esterase; [2]) | half-life at 4.9 µM (pig liver esterase; [3]) | HLMs Predominant Enzyme [1] | half-life [1] | Pig Liver Esterase (t1/2 min.) (+) Plasma (pig liver esterase; [4]) | SMILES |
| --- | --- | --- | --- | --- | --- | --- | --- |
| < 1 nM | Stable | > 2 h | 0.317 h |  |  |  | Cc1ccc(Cn2cc(COC(=O)c3ccc(SC(C)(C)C(=O)O)cc3)cn2)cc1 [Compound 3, 2-methyl-2-(4-(((1-(4-methylbenzyl)-1H-pyrazol-4-yl)methoxy)carbonyl)phenylthio)propanoic acid] |
|  |  | 1.02 h | < 0.0833 h | Esterase | 1 h |  | CCCc1nn(Cc2ccc(C(F)(F)F)cc2)cc1COC(=O)c1ccc(SC(C)(C)C(=O)O)cc1 [Compound 12, 2-methyl-2-(4-(((3-propyl-1-(4-(trifluoromethyl)benzyl)-1H-pyrazol-4-yl)methoxy)carbonyl)phenylthio)propanoic acid] |
| 1 to 50 nM |  | 1.48 h | 0.517 h | Esterase | 1.5 h |  | Cc1ccc(Cn2cc(COC(=O)c3ccc(SC(C)(C)C(=O)O)cc3)nn2)cc1 [Compound 60, 2-methyl-2-(4-(((1-(4-methylbenzyl)-1H-1,2,3-triazol-4-yl)methoxy)carbonyl)phenylthio)propanoic acid] |
| < 1 nM | Stable | 2.02 h | 0.35 h |  |  |  | CC(C)(Sc1ccc(C(=O)OCc2cn(Cc3ccc(C(F)(F)F)cc3)nn2)cc1)C(=O)O [Compound 67, 2-methyl-2-(4-(((1-(4-(trifluoromethyl)benzyl)-1H-1,2,3-triazol-4-yl)methoxy)carbonyl)phenylthio)propanoic acid] |
|  |  | 2.1 h | 0.233 h | Esterase | 1 h |  | CC(C)(Sc1ccc(C(=O)OCc2cn(Cc3ccc(C(C)(C)C)cc3)nn2)cc1)C(=O)O [Compound 69, 2-(4-(((1-(4-tert-butylbenzyl)-1H-1,2,3-triazol-4-yl)methoxy)carbonyl)phenylthio)-2-methylpropanoic acid] |
|  |  | 2.67 h | 0.483 h | Esterase | 0.417 h |  | COC(c1ccc(Cn2cc(COC(=O)c3ccc(SC(C)(C)C(=O)O)cc3)nn2)cc1)(C(F)(F)F)C(F)(F)F [Compound 75, 2-(4-(((1-(4-(1,1,1,3,3,3-hexafluoro-2-methoxypropan-2-yl)benzyl)-1H-1,2,3-triazol-4-yl)methoxy)carbonyl)phenylthio)-2-methylpropanoic acid] |
|  |  | > 2 h | 1.07 h | Mixed | 0.917 h |  | CC(C)(Sc1ccc(C(=O)OCCc2cn(Cc3ccc(C(F)(F)F)cc3)nn2)cc1)C(=O)O [Compound 91, 2-methyl-2-(4-((2-(1-(4-(trifluoromethyl)benzyl)-1H-1,2,3-triazol-4-yl)ethoxy)carbonyl)phenylthio)propanoic acid] |

Second part, the compound before the results:

| SMILES | EC50 (Full Length hPPARα) | HLMs t1/2 (min) [1] | half-life at 4.9 µM (pig liver esterase; [2]) | half-life at 4.9 µM (pig liver esterase; [3]) | HLMs Predominant Enzyme [1] | half-life [1] | Pig Liver Esterase (t1/2 min.) (+) Plasma (pig liver esterase; [4]) |
| --- | --- | --- | --- | --- | --- | --- | --- |
| Cc1ccc(Cn2cc([C@@H](C)OC(=O)c3ccc(SC(C)(C)C(=O)O)cc3)nn2)cc1 [Compound 87, (R)-2-methyl-2-(4-((1-(1-(4-methylbenzyl)-1H-1,2,3-triazol-4-yl)ethoxy)carbonyl)phenylthio)propanoic acid] |  |  | 1.38 h | 0.317 h | Esterase | 2.13 h |  |
| CCCn1c(COC(=O)c2ccc(OC(C)(C)C(=O)O)cc2)nn(Cc2ccc(C(C)(C)C)cc2)c1=O [Compound 150, 2-(4-(((1-(4-tert-butylbenzyl)-5-oxo-4-propyl-4,5-dihydro-1H-1,2,4-triazol-3-yl)methoxy)carbonyl)phenoxy)-2-methylpropanoic acid] | 1 to 50 nM | Stable |  | 0.517 h |  |  | Stable |
| CCCCCCn1c(COC(=O)c2ccc(OC(C)(C)C(=O)O)cc2)nn(Cc2ccc(C)cc2)c1=O [Compound 151, 2-(4-(((4-hexyl-1-(4-methylbenzyl)-5-oxo-4,5-dihydro-1H-1,2,4-triazol-3-yl)methoxy)carbonyl)phenoxy)-2-methylpropanoic acid] | < 1 nM | Stable |  | 0.517 h | Stable |  | Stable |
| CCCCCCCCn1c(COC(=O)c2ccc(OC(C)(C)C(=O)O)cc2)nn(Cc2ccc(C)cc2)c1=O [Compound 152, 2-methyl-2-(4-(((1-(4-methylbenzyl)-4-octyl-5-oxo-4,5-dihydro-1H-1,2,4-triazol-3-yl)methoxy)carbonyl)phenoxy)propanoic acid] | < 1 nM |  |  | 0.5 h | Esterase | 3 h | Stable |
| CCCn1c(COC(=O)c2ccc(SC(C)(C)C(=O)O)cc2)nn(Cc2ccc(C(C)(C)C)cc2)c1=O [Compound 159, 2-(4-(((1-(4-tert-butylbenzyl)-5-oxo-4-propyl-4,5-dihydro-1H-1,2,4-triazol-3-yl)methoxy)carbonyl)phenylthio)-2-methylpropanoic acid] | 1 to 50 nM | Stable | 1.62 h | 0.05 h |  |  |  |
